We go through 6 compounds from PMC3880613 (Journal of medicinal chemistry, 2013).

In one experiment the test system is PC43-10 cells (hRFC). The following applies: read-out: IC50 growth inhibition PC43-10; cited from earlier work.
Another experiment concerns the target FRβ (Homo sapiens, UniProt P14207). As to the kind of experiment: FR binding assay, competition with [3H]folic acid on D4 cells. The note with it: D4 CHO cells, pH 7.4, [3H]folic acid 50 nM, 0°C; Figure 3, in words.
Another experiment has as its target FRα (Homo sapiens, UniProt P15328). The experiment is described as follows: FR binding assay, competition with [3H]folic acid on RT16 cells. The following applies: RT16 CHO cells, pH 7.4, [3H]folic acid 50 nM, 0°C; Figure 3, in words.
For experiment [1], the system named is KB human nasopharyngeal carcinoma cells (hRFC/FRα/hPCFT). The experiment is described as follows: Growth inhibition assay, KB human tumor cells. The note with it: 96 h, read-out: IC50 growth inhibition KB.

Sequence of FRα (P15328 25-257): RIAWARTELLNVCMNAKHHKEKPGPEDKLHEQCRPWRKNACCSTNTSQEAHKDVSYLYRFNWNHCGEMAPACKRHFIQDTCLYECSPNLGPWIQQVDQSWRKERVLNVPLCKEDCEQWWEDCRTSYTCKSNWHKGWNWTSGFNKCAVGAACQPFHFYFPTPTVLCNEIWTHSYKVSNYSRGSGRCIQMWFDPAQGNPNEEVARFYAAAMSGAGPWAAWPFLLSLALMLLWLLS
Sequence of FRβ (P14207 17-255): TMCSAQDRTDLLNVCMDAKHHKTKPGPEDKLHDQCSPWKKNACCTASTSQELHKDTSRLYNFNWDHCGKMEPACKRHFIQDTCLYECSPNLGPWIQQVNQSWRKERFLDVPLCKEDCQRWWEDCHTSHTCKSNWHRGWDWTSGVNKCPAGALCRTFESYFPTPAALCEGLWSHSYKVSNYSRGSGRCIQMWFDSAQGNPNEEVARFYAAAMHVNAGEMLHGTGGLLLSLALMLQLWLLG

With `Nc1nc2[nH]c(CCCCc3ccc(C(=O)N[C@@H](CCC(=O)O)C(=O)O)cc3)cc2c(=O)[nH]1` [2b], the IC50 with PC43-10 cells (hRFC) is greater than 1000 nM.
In the case of `Nc1nc2[nH]c(CCCCCCCCC(=O)N[C@@H](CCC(=O)O)C(=O)O)cc2c(=O)[nH]1` [3d, (S)-2-(9-(2-Amino-4-oxo-4,7-dihydro-3H-pyrrolo[2,3-d]pyrimidin-6-yl)nonanamido)pentanedioic acid], the “Relative binding affinity to FRβ (folic acid = 1.0)” value on FRβ was “approximating those for compounds 2a and 2b”. The “Relative binding affinity to FRα (folic acid = 1.0)” value on FRα was “approximating those for compounds 2a and 2b”.
As for `Nc1nc2[nH]c(CCCCCCC(=O)O)cc2c(=O)[nH]1` [7f, 7-(2-Amino-4-oxo-4,7-dihydro-3H-pyrrolo[2,3-d]pyrimidin-6-yl)heptanoic acid], the IC50 in experiment [1] was greater than 1000 nM.
`Nc1nc2[nH]c(CCCCCCCC(=O)O)cc2c(=O)[nH]1` [7g, 8-(2-Amino-4-oxo-4,7-dihydro-3H-pyrrolo[2,3-d]pyrimidin-6-yl)octanoic acid]: the IC50 in experiment [1] is greater than 1000 nM.
Regarding `Nc1nc2[nH]c(CCCCCCCCC(=O)O)cc2c(=O)[nH]1` [7h, 9-(2-Amino-4-oxo-4,7-dihydro-3H-pyrrolo[2,3-d]pyrimidin-6-yl)nonanoic acid], on FRα, the “Relative binding affinity to FRα (folic acid = 1.0)” value was “detectable binding”. Further, the IC50 in experiment [1] is greater than 1000 nM.
Turning to `Nc1nc2[nH]c(CCCCCC(=O)O)cc2c(=O)[nH]1` [7e, 6-(2-Amino-4-oxo-4,7-dihydro-3H-pyrrolo[2,3-d]pyrimidin-6-yl)hexanoic acid], the IC50 in experiment [1] is greater than 1000 nM.

Broadly, the IC50 is the concentration needed to halve the response being measured.
